From patent publication US20160257697A1, “THIOPHENE-SUBSTITUTED TETRACYCLIC COMPOUNDS AND METHODS OFUSE THEREOF FOR THE TREATMENT OF VIRAL DISEASES” (priority 2013, published 2016)
Like-named read-outs stand apart in the source and are kept apart here.

Key:
Assay in all cases: microbe, parasite or virus in culture
Type in all cases: cell-based, Hepatitis C virus (HCV)
[1] = test system: HCV replicon 1AQ30D; conditions: Replicon Assay B
[2] = test system: HCV replicon 1B; conditions: Replicon Assay B
[3] = test system: HCV replicon 2B; conditions: Replicon Assay A
Method in brief: (§1)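 Cells seeded 2000/well + compound; 0.5% DMSO, 5% FBS; harvest day 3, lyse. Multiplex TaqMan RT-PCR for replicon (Neo probe) and cyclophilin RNA; amounts from Ct vs log(ng) linear regression of replicon total RNA standards.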

[4] = test system: HCV replicon 1AY93H; conditions: Replicon Assay A
Method in brief: as §1

[5] = test system: HCV replicon 1A; conditions: Replicon Assay A
Method in brief: as §1

[6] = read-out: 2B IC50, HCV replicon 2B
[7] = read-out: 1A Y93H IC50, HCV replicon 1A Y93H
[8] = Hepatitis C virus, read-out: 1A Q30D IC50 (nM), replicon 1AQ30D
[9] = Hepatitis C virus, read-out: 2B IC50 (nM), replicon 2B
[10] = Hepatitis C virus, read-out: 1A Y93H IC50 (nM), replicon 1AY93H
[11] = Hepatitis C virus, read-out: 1A Q30D IC50, HCV replicon 1A Q30D
[12] = Hepatitis C virus, HCV replicon 1B
[13] = Hepatitis C virus, HCV replicon 1A
[14] = read-out: 1A Y93H IC50, replicon 1AY93H
[15] = read-out: 1A Q30D IC50, replicon 1AQ30D

COC(=O)NC(C(=O)N1[C@@H]2C[C@@H]2C[C@H]1c1ncc(-c2ccc3c(c2)cc2n3C(c3ccc(CC4CC4)s3)Oc3cc(-c4cnc([C@@H]5CCCN5C(=O)[C@@H](NC(=O)OC)C(C)C)[nH]4)cc(F)c3-2)[nH]1)C1CCOC(C)(C)C1 (single isomer, unassigned) [Compound 419]
IC50 ([1]; read-out: 1A Q30D IC50, HCV replicon 1A Q30D): 0.0916 nM | IC50 ([2]; HCV replicon 1B): 8.3 pM | IC50 [3, 6]: 0.0132 nM | IC50 [4, 7]: 0.0072 nM | IC50 ([5]; HCV replicon 1A): 7.2 pM

COC(=O)N[C@H](C(=O)N1CCC[C@H]1c1ncc(-c2cc(F)c3c(c2)OC(c2ccc(C(F)F)s2)n2c-3cc3cc(-c4cnc([C@@H]5CCCN5C(=O)[C@@H](NC(=O)OC)C(C)C)[nH]4)ccc32)[nH]1)C(C)C (single isomer, unassigned) [Compound 46]
IC50 [1, 8]: 17.1 nM | IC50 ([2]; Hepatitis C virus, replicon 1B): 1 pM | IC50 [3, 9]: 1.79 nM | IC50 [4, 10]: 2.6 nM | IC50 ([5]; Hepatitis C virus, replicon 1A): 2.9 pM

COC(=O)NC(C(=O)N1CCC[C@H]1c1ncc(-c2ccc3c(c2)cc2n3C(c3cc4ccccc4s3)Oc3cc(-c4cnc([C@@H]5CCCN5C(=O)[C@@H](NC(=O)OC)C(C)C)[nH]4)cc(F)c3-2)[nH]1)C1C[C@@H](C)O[C@@H](C)C1 (single isomer, unassigned) [Compound 640]
IC50 [1, 11]: 0.271 nM | IC50 [2, 12]: 1.1 pM | IC50 [3, 6]: 0.0253 nM | IC50 [4, 7]: 0.0106 nM | IC50 [5, 13]: 1.9 pM

COC(=O)N[C@H](C(=O)N1CCC[C@H]1c1ncc(-c2ccc3c(c2)OC(c2ccc(C4CC4)s2)n2c-3c(F)c3cc(-c4cnc([C@@H]5CCCN5C(=O)[C@@H](NC(=O)OC)C(C)C)[nH]4)ccc32)[nH]1)C(C)C (single isomer, unassigned) [Compound 604]
IC50 [1, 11]: 0.704 nM | IC50 ([2]; HCV replicon 1B): 1.1 pM | IC50 [3, 6]: 0.0624 nM | IC50 [4, 7]: 0.0318 nM | IC50 [5, 13]: 1.3 pM

COC(=O)N[C@H](C(=O)N1CCC[C@H]1c1ncc(-c2cc(F)c3c(c2)OC(c2cc(F)c(C4CC4)s2)n2c-3cc3cc(-c4cnc([C@@H]5CCCN5C(=O)[C@@H](NC(=O)OC)C(C)C)[nH]4)ccc32)[nH]1)C(C)C (single isomer, unassigned) [Compound 72]
IC50 [1, 8]: 0.78 nM | IC50 ([2]; Hepatitis C virus, replicon 1B): 1.5 pM | IC50 ([3]; read-out: 2B IC50, replicon 2B): 0.089 nM | IC50 [4, 14]: 0.01 nM | IC50 ([5]; replicon 1A): 2.6 pM

COC(=O)N[C@H](C(=O)N1CCC[C@H]1c1ncc(-c2cc(F)c3c(c2)OC(c2cc4ccccc4s2)n2c-3cc3cc(-c4cnc([C@@H]5C[C@H]6C[C@H]6N5C(=O)[C@@H](NC(=O)OC)C(C)C)[nH]4)ccc32)[nH]1)C(C)C (single isomer, unassigned) [Compound 615]
IC50 [1, 11]: 0.844 nM | IC50 [2, 12]: 1.9 pM | IC50 [3, 6]: 1.08 nM | IC50 [4, 7]: 0.045 nM | IC50 ([5]; HCV replicon 1A): 2.3 pM

COC(=O)NC(C(=O)N1CCC[C@H]1c1ncc(-c2ccc3c(c2)cc2n3C(c3cc4ccccc4s3)Oc3cc(-c4cnc([C@@H]5CCCN5C(=O)[C@@H](NC(=O)OC)C5CCOCC5)[nH]4)cc(F)c3-2)[nH]1)C(C)(C)F (single isomer, unassigned) [Compound 184]
IC50 [1, 15]: 0.21 nM | IC50 ([2]; replicon 1B): 2 pM | IC50 ([3]; read-out: 2B IC50, replicon 2B): 0.076 nM | IC50 [4, 14]: 0.16 nM | IC50 ([5]; replicon 1A): 2 pM

COC(=O)N[C@H](C(=O)N1CCC[C@H]1c1ncc(-c2cc(F)c3c(c2)OC(c2ccc(C(F)F)s2)n2c-3cc3cc(-c4cnc([C@@H]5CCCN5C(=O)[C@@H](NC(=O)OC)C(C)C)[nH]4)ccc32)[nH]1)C(C)C (single isomer, unassigned) [Compound 45]
IC50 ([1]; replicon 1AQ30D, read-out: 1A Q30D IC50): 0.37 nM | IC50 ([2]; replicon 1B): 1.1 pM | IC50 ([3]; replicon 2B, read-out: 2B IC50): 0.044 nM | IC50 ([4]; replicon 1AY93H, read-out: 1A Y93H IC50): 0.01 nM | IC50 ([5]; replicon 1A): 1.1 pM

COC(=O)N[C@H](C(=O)N1CCC[C@H]1c1ncc(-c2cc(F)c3c(c2)OC(c2ccc(C#N)s2)n2c-3cc3cc(-c4cnc([C@@H]5CCCN5C(=O)[C@@H](NC(=O)OC)C(C)C)[nH]4)ccc32)[nH]1)C(C)C (single isomer, unassigned) [Compound 17]
IC50 [1, 15]: 2.91 nM | IC50 ([2]; Hepatitis C virus, replicon 1B): 2.1 pM | IC50 ([3]; read-out: 2B IC50, replicon 2B): 0.54 nM | IC50 [4, 14]: 0.19 nM | IC50 ([5]; Hepatitis C virus, replicon 1A): 2.6 pM

COC(=O)N[C@H](C(=O)N1CCC[C@H]1c1ncc(-c2cc(F)c3c(c2)OC(c2ccc(CC4CC4)s2)n2c-3cc3cc(-c4cnc([C@@H]5CCCN5C(=O)[C@@H](NC(=O)OC)C5CCOCC5)[nH]4)ccc32)[nH]1)C(C)C (single isomer, unassigned) [Compound 356]
IC50 [1, 15]: 0.152 nM | IC50 ([2]; Hepatitis C virus, replicon 1B): 2.5 pM | IC50 ([3]; read-out: 2B IC50, replicon 2B): 0.0175 nM | IC50 [4, 14]: 0.0214 nM | IC50 ([5]; Hepatitis C virus, replicon 1A): 2.5 pM

COC(=O)NC(C(=O)N1CCC[C@H]1c1ncc(-c2ccc3c(c2)cc2n3C(c3ccc(C4CC4)s3)Oc3cc(-c4cnc([C@@H]5CCCN5C(=O)[C@@H](NC(=O)OC)C(C)C)[nH]4)cc(F)c3-2)[nH]1)C1CCOC(C)(C)C1 (stereo partly shown) [Compound 218]
IC50 [1, 8]: 0.055 nM | IC50 ([2]; Hepatitis C virus, replicon 1B): 3.1 pM | IC50 [3, 9]: 0.004 nM | IC50 [4, 10]: 0.004 nM | IC50 ([5]; Hepatitis C virus, replicon 1A): 2.6 pM

COC(=O)NC(C(=O)N1CCC[C@H]1c1ncc(-c2cc(F)c3c(c2)OC(c2ccc(C)s2)n2c-3cc3cc(-c4cnc([C@@H]5CCCN5C(=O)[C@@H](NC(=O)OC)C5CCOCC5)[nH]4)ccc32)[nH]1)C(C)(C)F (single isomer, unassigned) [Compound 108]
IC50 [1, 15]: 1.15 nM | IC50 ([2]; replicon 1B): 2.7 pM | IC50 ([3]; read-out: 2B IC50, replicon 2B): 0.29 nM | IC50 [4, 14]: 0.25 nM | IC50 ([5]; replicon 1A): 2.6 pM

COC(=O)N[C@H](C(=O)N1CCC[C@H]1c1ncc(-c2cc(F)c3c(c2)OC(c2ccc(CC(C)C)s2)n2c-3cc3cc(-c4cnc([C@@H]5CCCN5C(=O)[C@@H](NC(=O)OC)C(C)C)[nH]4)ccc32)[nH]1)C(C)C (single isomer, unassigned) [Compound 520]
IC50 [1, 11]: 1.91 nM | IC50 [2, 12]: 9.24 pM | IC50 [3, 6]: 0.593 nM | IC50 [4, 7]: 0.0828 nM | IC50 ([5]; HCV replicon 1A): 9.47 pM

COC(=O)NC(C(=O)N1[C@@H]2C[C@@H]2C[C@H]1c1ncc(-c2ccc3c(c2)cc2n3C(c3ccc(C4CC4)s3)Oc3cc(-c4cnc([C@@H]5CCCN5C(=O)[C@@H](NC(=O)OC)C(C)C)[nH]4)cc(F)c3-2)[nH]1)C1C[C@@H](C)O[C@@H](C)C1 (single isomer, unassigned) [Compound 272]
IC50 [1, 15]: 2.39 nM | IC50 ([2]; replicon 1B): 3.3 pM | IC50 ([3]; read-out: 2B IC50, replicon 2B): 2.75 nM | IC50 [4, 14]: 1 nM | IC50 ([5]; replicon 1A): 2.7 pM

COC(=O)NC(C(=O)N1CCC[C@H]1c1ncc(-c2ccc3c(c2)cc2n3C(c3ccc(F)s3)Oc3cc(-c4cnc([C@@H]5CCCN5C(=O)[C@@H](NC(=O)OC)C(C)C)[nH]4)cc(F)c3-2)[nH]1)C1C[C@@H](C)O[C@@H](C)C1 (single isomer, unassigned) [Compound 348]
IC50 [1, 8]: 0.387 nM | IC50 ([2]; Hepatitis C virus, replicon 1B): 2.7 pM | IC50 ([3]; read-out: 2B IC50, replicon 2B): 0.0326 nM | IC50 [4, 14]: 0.0149 nM | IC50 ([5]; Hepatitis C virus, replicon 1A): 1.9 pM

COC(=O)NC(C(=O)N1CCC[C@H]1c1ncc(-c2cc(F)c3c(c2)OC(c2ccc(C4CC4)s2)n2c-3cc3cc(-c4cnc([C@@H]5CCCN5C(=O)[C@@H](NC(=O)OC)C(C)C)[nH]4)ccc32)[nH]1)C1C[C@@H](C)O[C@@H](C)C1 (single isomer, unassigned) [Compound 186]
IC50 [1, 8]: 2.84 nM | IC50 ([2]; Hepatitis C virus, replicon 1B): 2.1 pM | IC50 [3, 9]: 0.63 nM | IC50 [4, 14]: 0.53 nM | IC50 ([5]; replicon 1A): 1.9 pM

COC(=O)NC(C(=O)N1CCC[C@H]1c1ncc(-c2ccc3c(c2)cc2n3C(c3ccc(C4CC4)s3)Oc3cc(-c4cnc([C@@H]5CCCN5C(=O)[C@@H](NC(=O)OC)C(C)C)[nH]4)cc(F)c3-2)[nH]1)C1CCCCO1 (single isomer, unassigned) [Compound 342]
IC50 [1, 15]: 1.07 nM | IC50 ([2]; replicon 1B): 2.6 pM | IC50 ([3]; read-out: 2B IC50, replicon 2B): 0.166 nM | IC50 [4, 14]: 0.069 nM | IC50 ([5]; replicon 1A): 1.6 pM

COC(=O)N[C@H](C(=O)N1CCC[C@H]1c1ncc(-c2cc(F)c3c(c2)OC(c2cc4c(s2)CCC(C)(C)O4)n2c-3cc3cc(-c4cnc([C@@H]5CCCN5C(=O)[C@@H](NC(=O)OC)C(C)C)[nH]4)ccc32)[nH]1)C(C)C (single isomer, unassigned) [Compound 397]
IC50 [1, 8]: 0.0765 nM | IC50 ([2]; Hepatitis C virus, replicon 1B): 3 pM | IC50 ([3]; read-out: 2B IC50, replicon 2B): 0.0164 nM | IC50 [4, 14]: 0.004 nM | IC50 ([5]; Hepatitis C virus, replicon 1A): 3 pM

COC(=O)NC(C(=O)N1CCCC1c1ncc(-c2cc(F)c3c(c2)OC(c2cc4c(s2)CC2(C4)OCCO2)n2c-3cc3cc(-c4cnc(C5CCCN5C(=O)C(NC(=O)OC)C(C)C)[nH]4)ccc32)[nH]1)C(C)C (mixture of isomers) [Compound 847]
IC50 ([1]; HCV replicon 1A Q30D, read-out: 1A Q30D IC50): 1.76 nM | IC50 ([2]; HCV replicon 1B): 5 pM | IC50 ([3]; HCV replicon 2B, read-out: 2B IC50): 0.312 nM | IC50 ([4]; HCV replicon 1A Y93H, read-out: 1A Y93H IC50): 0.214 nM | IC50 ([5]; HCV replicon 1A): 3.8 pM

CCc1ccc(C2Oc3cc(-c4cnc([C@@H]5CCCN5C(=O)C(NC(=O)OC)C5CCOC(C)(C)C5)[nH]4)cc(F)c3-c3cc4cc(-c5cnc([C@@H]6CCCN6C(=O)C(NC(=O)OC)C6CCOC(C)(C)C6)[nH]5)ccc4n32)s1 (single isomer, unassigned) [Compound 296]
IC50 [1, 15]: 0.005 nM | IC50 ([2]; replicon 1B): 3.3 pM | IC50 ([3]; read-out: 2B IC50, replicon 2B): 0.005 nM | IC50 [4, 14]: 0.002 nM | IC50 ([5]; replicon 1A): 2.8 pM
